Values quoted from earlier work, collected in publication PMC12032770 (Journal of Experimental & Clinical Cancer Research : CR, 2025).

Test system: αvβ3 and αvβ5 integrin receptors
Settings: at low doses
Description: The αvβ3 and αvβ5 integrin receptors are strongly overexpressed on proangiogenic endothelial cells, including those that form tumor-associated blood vessels in GBM, and inhibitors targeting these integrins, such as the cyclic peptide cilengitide (CIL), act as anti-angiogenic agents.

cilengitide
effect on tumor vasculature: vascular normalization
